Measured values reported in article PMC4973902, “Identification of Novel Smoothened Ligands Using Structure-Based Docking” (PLoS ONE, 2016).
Entries after “also recorded” stand apart in the source; their conditions may differ. Where two headings read alike, the source gives them in different places.

How the values were obtained:
[1] = system: Gli1 expression in Ptch1-/- MEFs; experiment: qPCR of Gli1 expression in Ptch1-/- MEFs; type: cell-based, mouse; conditions: for IC50: Mus musculus
Experimental: (§1) Antagonist candidates were tested using Ptch1^-/- reporter mouse embryonic fibroblasts (MEFs). In Ptch1^-/- cells, the Hh pathway is constitutively activated as a result of deletion of Patched-1, the Hedgehog receptor and a functional inhibitor of Smo. The reporter cells were engineered to express the 8XGli-Luciferase reporter that faithfully monitors levels of Gli-mediated transcriptional activity as a readout of Hedgehog signalling. Firefly Luciferase is therefore constitutively expressed in these cells and its expression is inhibited by Smo antagonists such as cyclopamine. In the initial test for activity, we screened the 21 docking hits at a dose of 30 μM. […] Their ability to repress the pathway was further confirmed by quantifying transcript levels of Gli1, a target gene of the Hedgehog pathway, using qPCR (Fig 1C and S1 Table).
(§2) Ptch1^-/- MEFs or C3H10T1/2 SMO cells (overexpression of mouse Smo wt or mouse Smo D477H using a retroviral vector) were plated at a density of 2x10^5 cells/well in 12-well plates. The next day, the confluent cells were serum-starved with plain DMEM for 24 h before drugs and compounds were added to the indicated final concentration. RNA was extracted using Trizol (Life Technologies, 15596–018) after 24 h. 1 μg of RNA was DNase-treated (Life Technologies, 18047–019) before being reverse transcribed into cDNA (High-Capacity Reverse Transcription kit, Life Technologies, 4368813). Real-time quantitative PCR reactions were performed on an ABI 7900HT in 384-well plates containing 20 ng cDNA, using Power SYBR Green PCR Master Mix (Life Technologies, 4367660). Relative Gli1 mRNA levels were calculated using the comparative Ct method, normalized to Gapdh mRNA. Primers used were validated as previously described.

mouse Smoothened = mouse Smoothened (Mus musculus, UniProt P56726); conditions: for Binding (yes/no), BODIPY-cyclopamine displacement: HEK293 mSmo-mCherry
Experimental: Using a stable line enabling the inducible expression of Smo-mCherry, we tested whether well-behaved, non-aggregating antagonists can specifically displace BODIPY-cyclopamine bound to Smoothened using flow cytometry.
Left: average cell fluorescence was measured by flow cytometry and plotted against antagonist concentration. Representative curve are shown.
A 293 stable cell line expressing tetracycline-inducible mouse Smoothened with mCherry fused to its C-terminus was used for these experiments. Cells were grown to confluence in the presence of 1 μg/mL tetracycline for 24 h. Cells were then incubated with 10 nM BODIPY-Cyclopamine and compounds for 2 h at 37°C. For FACS, cells were first trypsinized, fixed with 4% paraformaldehyde for 20 min, washed with TBS + 0.1% Triton X-100 and then sorted (FACS). BODIPY fluorescence was measured on the FACS Fortessa and FACS data was analyzed with FlowJo software. BODIPY fluorescence in control HEK293 was used to set the background threshold. Mean fluorescence was plotted against the compound concentration to calculate its IC50. For microscopy, fixed cells were imaged. Live cells were washed with PBS before fixing.

[2] = Aggregation counter-screens (DLS, centrifugation, unrelated enzymes), overall outcome; type: physicochemical; conditions: enzyme counter-screens
Experimental: All the antagonists with low micromolar IC50 were counter-screened for colloidal aggregation, a common mechanism of artefactual activity in early ligand discovery. […] These observations highlight the importance of counter-screening for this artefactual mechanism of action when evaluating new Smoothened antagonists.
(§3) The assays were performed as always with the addition of a centrifugation step. The antagonists were diluted in media to their final concentration. Half the solution was used as standard treatment: the media in wells was replaced with the media containing the drugs. The other half of the solution was then centrifuged for 20 min at 21,000g. The supernatant was used to replace the media in the wells.
(§4) Compounds 13b, 19b, 20b, 25b, 27b, 32b, 37b, 40b and 45b were diluted with both filtered DMEM and KPi, with a final concentration of 1% DMSO. Measurements were made using a DynaPro Plate Reader II system (Wyatt Technology) with a 60 mW laser at ~830 nm in either 96-well or 384-well plates; this particular instrument had been modified by Wyatt Technology to have a larger laser beam width that is appropriate for detecting large colloidal particles.
Both DMEM and KPi were used as buffer.

[3] = system: Gli-Luciferase reporter in Ptch1-/- MEFs; experiment: 8xGli-Luciferase reporter assay in Ptch1-/- MEFs; type: cell-based, mouse; conditions: for inhibition at 30 µM / IC50: Mus musculus; for inhibition at 30 µM: compared to DMSO; for IC50: read-out: IC50 Gli-Luciferase assay (range, n); for Inhibition of Gli-Luciferase (yes/no): single-dose screen at 30 μM (vismodegib 100 nM)
Experimental: as §1
Ptch1^-/- MEFs stably expressing the Gli-Luciferase reporter and constitutive Renilla Luciferase were used. The Gli-Luciferase reporter is a Firefly Luciferase reporter driven by 8xGli consensus binding site in its promoter, cloned in a lentiviral plasmid carrying a puromycin resistance for selection. For the assay, 5x10^4 cells/well were plated in 48-well plates. The next day, the confluent cells were serum-starved with plain DMEM for 24 h. Drugs and compounds were added to the indicated final concentration and incubated for 24 h, each condition in duplicate. For the assay, Promega Dual Glow reagents were used. Media was removed and cells were lysed in 50 μL Passive Lysis Buffer for 10 min. 10 μL of lysate was assayed in black plates with 10 μL of each substrate, in duplicate. Luminescence was measured with an EnVision 2100 (Perkin Elmer). Firefly Luciferase luminescence was divided by the Renilla Luciferase luminescence, then normalized to vehicle condition to obtain the fold change in reporter activity.

[4] = system: TOPFLASH Wnt-ß-catenin reporter (Frizzled receptors); experiment: TopFlash Wnt-ß-catenin reporter assay in HEK293T cells; conditions: Wnt3a-conditioned media
Experimental: We used HEK293T TopFlash cells, expressing a luciferase reporter under the control of a ß–catenin-responsive LEF/TCF promoter.
The assay was carried out in HEK293T, as described [71].

[5] = molecular target: T1, mouse D477H mutant (equivalent to human D473H) of Smo (Mus musculus, UniProt P56726, D477H); experiment: Gli1 qPCR dose-response in C3H10T1/2 cells overexpressing Smo D477H; type: cell-based
T1 construct: expressed in transfected cells; host or cells: C3H10T1/2 cells, retroviral transduction
Source text: (§5) Fig 7 Binding poses and inhibition of vismodegib-resistant Smo by 45b. (A) Side view of the complex of Smo structure (represented as purple surface, TM6 was cut) with LY2940680 in the orthosteric site (represented as light pink sticks). (B)-(F) Predicted binding modes against the Smo WT of compounds 3, 6, 44, 244 and 45b, respectively. LY2940680 is represented as light pink wires, the compounds as green sticks, hydrogen bonds as black dashed lines and important residues as sticks. […] C3H10T1/2 cells were transduced with retrovirus for the overexpression of Smo wt or Smo D477H. (H) Predicted binding modes of compound 45b against a model of D473H Smo.
as §2, with “1 μg of RNA was DNase-treated (Life Technologies, 18047–019) before being reverse transcribed into cDNA (High-Capacity Reverse Transcription kit, Life Technologies, 4368813).” left out, “Primers used were validated as previously described.” left out

Smo wt = molecular target: T2, Smo wt (Mus musculus, UniProt P56726); experiment: Gli1 qPCR dose-response in C3H10T1/2 cells overexpressing Smo wt; type: cell-based; conditions: read-out: inhibition of Smo WT (dose-response, Fig 7G)
T2 construct: expressed in transfected cells; host or cells: C3H10T1/2 cells, retroviral transduction
Source text: as §5
as §2, with “1 μg of RNA was DNase-treated (Life Technologies, 18047–019) before being reverse transcribed into cDNA (High-Capacity Reverse Transcription kit, Life Technologies, 4368813).” left out, “Primers used were validated as previously described.” left out

Smoothened = molecular target: T3, Smoothened (Mus musculus, UniProt P56726); experiment: Centrifugation counter screen of Smo antagonism; type: cell-based; conditions: 20 min centrifugation; Gli-luciferase, Gli1 qPCR, bodipy-cyclopamine displacement
T3 construct: endogenous in cells; host or cells: Ptch1-/- MEFs with 8xGli-Luciferase reporter (inferred)
Experimental: as §3

[6] = Dynamic Light Scattering (DLS); type: physicochemical; conditions: 1 μM
Experimental: as §4

Smo mutations at D473 = system: Smo mutations at D473; set-up: method as in PMID 25008467; conditions: cited from earlier work
D473H mutant of Smo = system: D473H mutant of Smo; set-up: method as in PMID 19726788; conditions: cited from earlier work
[7] = 24 h, read-out: IC50 Gli1 qPCR (range, n)

Sequence of mouse Smoothened (P56726 33-793): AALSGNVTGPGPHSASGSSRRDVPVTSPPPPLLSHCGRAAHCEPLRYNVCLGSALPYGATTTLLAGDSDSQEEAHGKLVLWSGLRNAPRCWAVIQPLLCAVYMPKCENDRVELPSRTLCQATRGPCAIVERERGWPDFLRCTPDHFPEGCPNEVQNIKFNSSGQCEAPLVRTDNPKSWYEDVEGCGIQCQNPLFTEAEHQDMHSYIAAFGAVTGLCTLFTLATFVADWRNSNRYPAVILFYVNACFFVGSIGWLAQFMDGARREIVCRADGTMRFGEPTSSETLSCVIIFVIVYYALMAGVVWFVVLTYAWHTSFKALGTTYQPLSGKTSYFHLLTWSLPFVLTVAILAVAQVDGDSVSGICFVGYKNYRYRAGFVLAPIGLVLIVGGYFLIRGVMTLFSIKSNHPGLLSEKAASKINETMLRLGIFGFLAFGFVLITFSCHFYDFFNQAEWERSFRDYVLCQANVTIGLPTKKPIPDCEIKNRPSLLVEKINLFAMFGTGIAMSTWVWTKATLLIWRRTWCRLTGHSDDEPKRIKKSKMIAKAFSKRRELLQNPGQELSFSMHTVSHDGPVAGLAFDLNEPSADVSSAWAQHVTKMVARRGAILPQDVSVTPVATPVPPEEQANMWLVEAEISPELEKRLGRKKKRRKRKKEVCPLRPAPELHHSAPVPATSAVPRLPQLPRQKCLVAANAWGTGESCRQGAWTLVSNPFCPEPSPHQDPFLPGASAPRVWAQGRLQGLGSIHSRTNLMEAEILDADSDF
T3 sequence (P56726 33-793): as above
T1 sequence (P56726 33-793 D477H): as the sequence (P56726 33-793) above, with D445H counted along it
T2 sequence (P56726 33-793): as the sequence (P56726 33-793) above

Row | SMILES | Inhibition - Gli1 qPCR (yes/no) [1] | IC50 [1, 7] | IC50 (mouse Smoothened) | outcome of aggregation counter-screens [2] | inhibition at 30 µM [3] | IC50 ([3]; 24 h) | Inhibition of Gli-Luciferase (yes/no) [3] | also measured
1 | Cc1cccc(C(=O)Nc2cccc(NC(=O)Cc3cccnc3)c2)c1 [Compound 3] | yes | 94.8 µM | 166 µM | well-behaved antagonists | > 50% | 43 µM | yes | Binding (yes/no), BODIPY-cyclopamine displacement (mouse Smoothened): yes
2 | CN(C)c1ccc(CNC(=O)Nc2ccc(-n3ccnc3)nc2)cn1 [Compound 6] | yes | 109 µM |  | well-behaved antagonists | > 50% | 20.8 µM | yes | 
3 | COc1ccccc1C(=O)Nc1cccc(NC(=O)Cc2cccnc2)c1 [Compound 13b] |  |  |  |  |  | 10.9 µM |  | 
4 | c1ccc(CNc2cc(-c3ccc4c(c3)CNCC4)c3cc[nH]c3n2)nc1 [Compound 19b] |  |  |  |  |  | 22.4 µM |  | 
5 | NC(=O)c1cc(-c2cc(NCc3ccccn3)nc3[nH]ccc23)cs1 [Compound 25b] |  | 7.8 µM |  | well-behaved antagonists |  | 2.3 µM |  | 
6 | Cc1cc2c(-c3cc(NCc4ccccn4)nc4[nH]ccc34)ncnc2s1 [Compound 32b] |  | 12.7 µM |  | well-behaved antagonists |  | 9.4 µM |  | 
7 | NC(=O)c1cc(-c2cc(NCc3cccnc3)nc3[nH]ccc23)cs1 [Compound 37b] |  | 8.8 µM |  | well-behaved antagonists |  | 5.4 µM |  | 
8 | COc1cc(-c2cc(NCc3ccccn3)nc3[nH]ccc23)ccc1O [Compound 44] | yes | 14 µM | 15.6 µM | well-behaved antagonists | > 50% | 34.4 µM | yes | Binding (yes/no), BODIPY-cyclopamine displacement (mouse Smoothened): yes
9 | CSc1nc(C)cc(-c2cc(NCc3ccccn3)nc3[nH]ccc23)n1 [Compound 45b] |  | 5.3 µM | 12.7 µM | well-behaved antagonists |  | 3.1 µM |  | activity on TOPFLASH Wnt-ß-catenin reporter ([4]; 10 μM, 24 hours co-treatment): no detectable activity; also recorded: lack of inhibition; IC50 ([5]; C3H10T1/2 cells overexpressing mouse Smo D477H, read-out: inhibition of Smo D473H mutant (dose-response, Fig 7G)): 3.1 µM; shift at D473H mutant relative to WT ([5]; D473H vs WT): 2.7 fold; IC50 (Smo wt): 1.1 µM
10 | NC(=O)c1ccc(-c2cc(NCc3ccccn3)nc3[nH]ccc23)o1 [Compound 244] | yes | 11.3 µM | 58.3 µM | well-behaved antagonists | > 50% | 5.3 µM | yes | Binding (yes/no), BODIPY-cyclopamine displacement (mouse Smoothened): yes
11 | CCC(C)n1ncn(-c2ccc(N3CCN(c4ccc(OCC5COC(Cn6cncn6)(c6ccc(Cl)cc6Cl)O5)cc4)CC3)cc2)c1=O (stereo not drawn) [itraconazole] |  |  |  |  |  |  |  | effect of centrifugation on antagonism of Smo (Smoothened): disrupted by prior-centrifugation; also recorded: largely or entirely eliminated; radius of colloidal particles by DLS ([6]; DMEM): 180 nm
12 | CN(C(=O)c1ccc(F)cc1C(F)(F)F)C1CCN(c2nnc(-c3ccnn3C)c3ccccc23)CC1 [taladegib] |  |  |  |  |  |  |  | efficacy in the resistant mutants (Smo mutations at D473): unaffected or have minor drop in efficacy
13 | CS(=O)(=O)c1ccc(C(=O)Nc2ccc(Cl)c(-c3ccccn3)c2)c(Cl)c1 [vismodegib, reference compound] |  |  |  |  |  |  |  | IC50 ([1]; read-out: IC50 mGli1 qPCR (range, n)): 0.0018 µM; activity on TOPFLASH Wnt-ß-catenin reporter ([4]; 100 nM): lack of inhibition; IC50 [3]: 0.0306 µM; particle formation by DLS [6]: does not form particles; reduction of binding to Smo by D473H mutation (D473H mutant of Smo): 100 folds
